Measurements: patent publication US8124637B2, “Anthra [1, 2-d]imidazole-6,11-dione derivatives, preparation method and application thereof” (National Defense Medical Center, priority 2010, dated 2012)

Legend:
Assay type in all cases: cell-based, human
[1] = test system: hTERT promoter (PhTERT) expression; experiment: SEAP assay (PhTERT-SEAP reporter, H1299); settings: Homo sapiens, NCI-H1299, PhTERT-SEAP (H1299); for activity at 1 µM: read-out: Relative SEAP activity (%); for activity at 10 µM / activity at 100 µM: read-out: Relative SEAP activity (%) (converted)
Method: H1299 were grown in RPMI 1640 media supplemented with 10% fetal bovine serum, 100 units/mL penicillin and […] streptomycin in a humidified atmosphere with 5% CO2 at 37° C. Culture media were changed every three days. To establish stable cell lines that the expression of hTERT could be monitored by a reporter system, a about 3.3 kbp DNA fragment ranging from −3338 to +1 bp of the hTERT gene (hTERT promoter, PhTERT) was subcloned upstream to a secreted alkaline phosphatase gene (SEAP) and transfected into H1299 bp electroporation. The stable clones were selected using G418. The stable clones derived from H1299 were cultured using conditions that are similar to their parental cells.
Secreted alkaline phosphatase was used as the reporter system to monitor the transcriptional activity of hTERT. Here, about 10^4 cells each were grown in 96-well plates and incubated at 37° C. for 24 hours and changed with fresh media. Varying amounts of drugs were added and cells were incubated for another 24 hours. Culture media were collected and heated at 65° C. for 10 min to inactivate heat-labile phosphatases. An equal amount of SEAP buffer (2 M diethanolamine, 1 mM MgCl2, and 20 mM L-homoarginine) was added to the media and p-nitrophenyl phosphate was added to a final concentration of 12 mM. Absorptions at 405 nm were taken, and the rate of absorption increase is determined (the increasing rate of absorbance at 405 nm was used to represent the activity of SEAP).

[2] = test system: SF-268; experiment: NCI 60-cell drug screen, one dose; settings: CNS Cancer SF-268, 1.00E−5 Molar
Method: (§1) In brief, cellular protein levels were determined after 48 hours of drug exposure by sulforhodamine B colorimetry.
(§2) The screening system in United State National Cancer Institute (NCI) consists of 60 kinds of different human cancer cells, which can be used to assay the growth-inhibiting ability or cell toxicity of a compound against various cancer and tumor at a certain concentration. The NCI had selected 6 compounds synthesized above, and performed cell toxicity assay against 60 kinds of cancer cell strains (Table 2) (DTP Human Tumor Cell Line Screen), in which each compound was assayed at a certain concentration to observe its inhibition ability or cell toxicity against various kinds of cancer and tumor.

[3] = test system: IGROV1; experiment: NCI 60-cell drug screen, one dose; settings: Ovarian Cancer IGROV1, 1.00E−5 Molar
Method: as §1, §2

[4] = test system: HCT-15; experiment: NCI 60-cell drug screen, one dose; settings: Colon Cancer HCT-15, 1.00E−5 Molar
Method: as §1, §2

[5] = test system: NCI-H522; experiment: NCI 60-cell drug screen, one dose; settings: Non-Small Cell Lung Cancer NCI-H522, 1.00E−5 Molar
Method: as §1, §2

[6] = test system: SN12C; experiment: NCI 60-cell drug screen, one dose; settings: Renal Cancer SN12C, 1.00E−5 Molar
Method: as §1, §2

[7] = test system: UACC-62; experiment: NCI 60-cell drug screen, one dose; settings: Melanoma UACC-62, 1.00E−5 Molar
Method: as §1, §2

[8] = test system: SW-620; experiment: NCI 60-cell drug screen, one dose; settings: Colon Cancer SW-620, 1.00E−5 Molar
Method: as §1, §2

[9] = test system: TK-10; experiment: NCI 60-cell drug screen, one dose; settings: Renal Cancer TK-10, 1.00E−5 Molar
Method: as §1, §2

[10] = NCI 60-cell drug screen, one dose; settings: Renal Cancer A489, 1.00E−5 Molar
Method: as §1, §2

[11] = test system: OVCAR-4; experiment: NCI 60-cell drug screen, one dose; settings: Ovarian Cancer OVCAR-4, 1.00E−5 Molar
Method: as §1, §2

[12] = test system: UO-31; experiment: NCI 60-cell drug screen, one dose; settings: Renal Cancer UO-31, 1.00E−5 Molar
Method: as §1, §2

[13] = test system: OVCAR-3; experiment: NCI 60-cell drug screen, one dose; settings: Ovarian Cancer OVCAR-3, 1.00E−5 Molar
Method: as §1, §2

[14] = test system: OVCAR-5; experiment: NCI 60-cell drug screen, one dose; settings: Ovarian Cancer OVCAR-5, 1.00E−5 Molar
Method: as §1, §2

[15] = test system: T-47D; experiment: NCI 60-cell drug screen, one dose; settings: Breast Cancer T-47D, 1.00E−5 Molar
Method: as §1, §2

[16] = test system: U251; experiment: NCI 60-cell drug screen, one dose; settings: CNS Cancer U251, 1.00E−5 Molar
Method: as §1, §2

[17] = test system: HT29; experiment: NCI 60-cell drug screen, one dose; settings: Colon Cancer HT29, 1.00E−5 Molar
Method: as §1, §2

[18] = test system: NCI-H460; experiment: NCI 60-cell drug screen, one dose; settings: Non-Small Cell Lung Cancer NCI-H460, 1.00E−5 Molar
Method: as §1, §2

[19] = test system: HOP-62; experiment: NCI 60-cell drug screen, one dose; settings: Non-Small Cell Lung Cancer HOP-62, 1.00E−5 Molar
Method: as §1, §2

[20] = test system: 786-0; experiment: NCI 60-cell drug screen, one dose; settings: Renal Cancer 786-0, 1.00E−5 Molar
Method: as §1, §2

[21] = test system: DU145; experiment: NCI 60-cell drug screen, one dose; settings: Prostate Cancer DU145, 1.00E−5 Molar
Method: as §1, §2

[22] = test system: ACHN; experiment: NCI 60-cell drug screen, one dose; settings: Renal Cancer ACHN, 1.00E−5 Molar
Method: as §1, §2

[23] = test system: MDA-MB-468; experiment: NCI 60-cell drug screen, one dose; settings: Breast Cancer MDA-MB-468, 1.00E−5 Molar
Method: as §1, §2

[24] = test system: HOP-92; experiment: NCI 60-cell drug screen, one dose; settings: Non-Small Cell Lung Cancer HOP-92, 1.00E−5 Molar
Method: as §1, §2

[25] = test system: SNB-75; experiment: NCI 60-cell drug screen, one dose; settings: CNS Cancer SNB-75, 1.00E−5 Molar
Method: as §1, §2

[26] = test system: MALME-3M; experiment: NCI 60-cell drug screen, one dose; settings: Melanoma MALME-3M, 1.00E−5 Molar
Method: as §1, §2

[27] = test system: NCI-H23; experiment: NCI 60-cell drug screen, one dose; settings: Non-Small Cell Lung Cancer NCI-H23, 1.00E−5 Molar
Method: as §1, §2

[28] = test system: HS 578-T; experiment: NCI 60-cell drug screen, one dose; settings: Breast Cancer HS 578-T, 1.00E−5 Molar
Method: as §1, §2

| SMILES | activity at 1 µM [1] [%] | activity at 10 µM [1] [%] | activity at 100 µM [1] [%] | Growth Percent [2] [%] | Growth Percent [3] [%] | Growth Percent [4] [%] | Growth Percent [5] [%] | Growth Percent [6] [%] | Growth Percent [7] [%] | Growth Percent [8] [%] | Growth Percent [9] [%] | Growth Percent [10] [%] | Growth Percent [11] [%] | Growth Percent [12] [%] | Growth Percent [13] [%] | Growth Percent [14] [%] | Growth Percent [15] [%] | Growth Percent [16] [%] | Growth Percent [17] [%] | Growth Percent [18] [%] | also measured |
| --- | --- | --- | --- | --- | --- | --- | --- | --- | --- | --- | --- | --- | --- | --- | --- | --- | --- | --- | --- | --- | --- |
| O=C1c2ccccc2C(=O)c2c1ccc1nc(CN3CCN(c4ccccc4)CC3)[nH]c21 [CL27, 2-((4-phenylpiperazin-1-yl)methyl)-1H-anthra[1,2-d]imidazole-6,11-dione] | 92.23 ± 0.78 | 76.7 | 5.83 | 80.44 | 69.25 | 74.39 | 73.61 | 89.91 | 93.36 | 90.92 | 118.37 | 75.09 | 67.72 | 58.33 | 76.56 | 107.63 | 66.35 | 84.83 | 87.57 | 94.45 | Growth Percent [19]: 98.40%; Growth Percent [20]: 88.48%; Growth Percent [21]: 90.69%; Growth Percent [22]: 86.32%; Growth Percent [23]: 72.75%; Growth Percent [24]: 178.61%; Growth Percent [25]: 70.93%; Growth Percent [26]: 119.09%; Growth Percent [27]: 92.11%; Growth Percent [28]: 80.56% |
| O=C1c2ccccc2C(=O)c2c1ccc1nc(CN3CCN(c4ccccn4)CC3)[nH]c21 [CL28, 2-((4-(pyridin-2-yl)piperazin-1-yl)methyl)-1H-anthra[1,2-d]imidazole-6,11-dione] | 91.2 ± 2.69 | 57.1 | 1.12 | 79.15 | 91.25 | 86.02 | 94.06 | 79.85 | 85.13 | 85.97 | 120.65 | 68.23 | 64.57 | 60.42 | 88.67 | 110.77 | 56.78 | 86.28 | 75.79 | 79.98 | Growth Percent [19]: 103.18%; Growth Percent [20]: 91.03%; Growth Percent [21]: 81.46%; Growth Percent [22]: 80.61%; Growth Percent [23]: 53.92%; Growth Percent [24]: 93.87%; Growth Percent [25]: 82.14%; Growth Percent [26]: 124.77%; Growth Percent [27]: 81.65%; Growth Percent [28]: 111.04% |
| O=C1c2ccccc2C(=O)c2c1ccc1nc(CN3CCCCC3)[nH]c21 [CL16, 2-((piperidin-1-yl)methyl)-1H-anthra[1,2-d]imidazole-6,11-dione] | 75.8 ± 26.9 | < 50 | 6.78 | 58.46 | 54.22 | 54.20 | 84.14 | 96.96 | 74.61 | 71.72 | 115.68 | 61.84 | 65.27 | 42.93 | 66.26 | 101.70 | 69.11 | 72.67 | 61.38 | 64.61 | Growth Percent [19]: 92.69%; Growth Percent [20]: 62.88%; Growth Percent [21]: 74.90%; Growth Percent [22]: 47.11%; Growth Percent [23]: 58.32%; Growth Percent [24]: 80.97%; Growth Percent [25]: 86.42%; Growth Percent [26]: 119.68%; Growth Percent [27]: 81.32%; Growth Percent [28]: 50.98% |
| CCN(CC)Cc1nc2ccc3c(c2[nH]1)C(=O)c1ccccc1C3=O [CL04, 2-((diethylamino)methyl)-1H-anthra[1,2-d]imidazole-6,11-dione] | 91.2 ± 4.38 | < 50 | 0.13 | 74.04 | 13.61 | 65.75 | 73.14 | 69.04 | 68.47 | 60.46 | 98.12 | 49.50 | 65.69 | 27.21 | 63.32 | 96.50 | 83.55 | 70.77 | 56.02 | 55.50 | Growth Percent [19]: 85.27%; Growth Percent [20]: 64.88%; Growth Percent [21]: 73.54%; Growth Percent [22]: 48.41%; Growth Percent [23]: 54.46%; Growth Percent [24]: 56.11%; Growth Percent [25]: 82.03%; Growth Percent [26]: 98.45%; Growth Percent [27]: 75.96%; Growth Percent [28]: 70.37% |
